Results published in publication PMC9573667, “Efficient Oxidative Dearomatisations of Substituted Phenols Using Hypervalent Iodine (III) Reagents and Antiprotozoal Evaluation of the Resulting Cyclohexadienones against T. b. rhodesiense and P. falciparum Strain NF54” (Molecules, 2022).

tested on: P. falciparum, strain NF54, erythrocytic stages; experiment: In vitro growth inhibition assay of Plasmodium falciparum NF54 ([3H]-hypoxanthine incorporation); type: cell-based; settings: Plasmodium falciparum, NF54, strain NF54, erythrocytic stages; means of two to three measurements, SD <5%; read-out: P. falc. IC50
Protocol: Antimalarial activity was determined in vitro against the erythrocytic stages of P. falciparum using the drug-sensitive strain NF54. Parasite proliferation was assessed by incorporation of [^3H]-hypoxanthine using a modified version of [75]; for details, please refer to the Supplementary Materials. The positive control was chloroquine.
1. Experimental of biological testing
1.1 In vitro growth inhibition assay of Plasmodium falciparum NF54
Plasmodium falciparum, strain NF54, erythrocytic stages, and the standard drug, chloroquine, were used for the assay. The parasite cultures incubated in RPMI 1640 medium with 5% AlbuMAXTM (without hypoxanthine) were exposed to serial drug dilutions in microtiter plates. After 48 h of incubation at 37 °C in a reduced oxygen atmosphere, 0.5 μCi [3H]-hypoxanthine was added to each well of the plate. Cultures were incubated for a further 24 h before they were harvested onto glass-fiber filters and washed with distilled water. The radioactivity was counted using a BetaplateTM liquid scintillation […]
counter (Wallac, Zurich). […]
concentration and expressed as percentage of the untreated controls. IC50 values were calculated from the sigmoidal inhibition curves using Microsoft Excel. Chloroquine was used as control. […]

IC50 [nM] | SMILES
391 | COC(=O)CC1(O)C=C(Br)C(=O)C(Br)=C1 [Compound 4f, Methyl 2-(3,5-dibromo-1-hydroxy-4-oxocyclohexa-2,5-dien-1-yl)acetate]
657 | COC(=O)/C=C/C1(O)C=CC(=O)C=C1 [Compound 4i, Methyl (2E)-3-(1-hydroxy-4-oxocyclohexa-2,5-dien-1-yl)prop-2-enoate]
677 | O=C1C=CC(=O)c2cc(F)ccc21 [Compound 5d, 6-Fluoro-1,4-dihydronaphthalene-1,4-dione]
689 | O=C1C=CC(=O)c2cc(F)c(F)cc21 [Compound 5e, 6,7-Difluoro-1,4-dihydronaphthalene-1,4-dione]

same assay, conditions: based on IC50 values in nmol/L; DataWarrior 5.5.0

SMILES | ligand efficiency lipophilic price (LELP), P. falciparum | lipophilic ligand efficiency (LLE), P. falciparum
COC(=O)CC1(O)C=C(Br)C(=O)C(Br)=C1 [Compound 4f, Methyl 2-(3,5-dibromo-1-hydroxy-4-oxocyclohexa-2,5-dien-1-yl)acetate] | 1.613 | 5.4625
COC(=O)CCC1(O)C=CC(=O)C=C1 [Compound 4g, Methyl 3-(1-hydroxy-4-oxocyclohexa-2,5-dien-1-yl)propanoate] | 0.5999 | 4.7892
O=C1C=CC2(C=C1)CCC(=O)O2 [Compound 4h, 1-Oxaspiro [4.5]deca-6,9-diene-2,8-dione] | 0.1197 | 5.4846
COC(=O)/C=C/C1(O)C=CC(=O)C=C1 [Compound 4i, Methyl (2E)-3-(1-hydroxy-4-oxocyclohexa-2,5-dien-1-yl)prop-2-enoate] | 0.07742 | 6.1355
O=C1C=CC(=O)c2cc(F)ccc21 [Compound 5d, 6-Fluoro-1,4-dihydronaphthalene-1,4-dione] | 2.3657 | 4.6292
O=C1C=CC(=O)c2cc(F)c(F)cc21 [Compound 5e, 6,7-Difluoro-1,4-dihydronaphthalene-1,4-dione] | 2.7178 | 4.5208

tested on: L6 cells rat skeletal myoblasts; experiment: Cytotoxicity against L6 cells (Alamar blue); type: cell-based; settings: L6 rat skeletal myoblasts, 72 h; read-out: Cyt. L6 IC50
Protocol: The antiprotozoal activity of 5a,b has already been described in the literature. […] Cytotoxicity was determined using L6 rat skeletal myoblasts to calculate a selectivity index for each parasite (SI = IC50(L6)/IC50(parasite)).
Cytotoxicity was determined in vitro against rat L6 myoblasts as described; details are listed in the supplement. […]
1.3 Cytotoxicity against L6 cells
Assays were performed in 96-well microtiter plates, each well containing 100 μL of RPMI 1640 medium supplemented with 1% L-glutamine (200 mM) and 10% foetal bovine serum, and 4000 L6 cells (a […] cell line derived from rat skeletal myoblasts). Serial drug dilutions of 11 threefold dilution steps covering a range from 100 to 0.002 μg/mL were prepared. After 72 h of incubation, the plates were inspected under an inverted microscope to assure growth of the controls and sterile conditions. 10 μL of Alamar Blue solution was then added to each well and the plates incubated for another 2 h. Then the plates were read with a Spectramax Gemini XS microplate fluorometer (Molecular Devices Cooperation, Sunnyvale, CA, USA) using an excitation wavelength of 536 nm and an emission wavelength of 588 nm.
The IC50 values were calculated by linear regression from the sigmoidal dose inhibition curves using the microplate reader software Softmax Pro (Molecular Devices Cooperation, Sunnyvale, CA, USA).
Podophyllotoxin (Sigma P4405) was used as control.

SMILES | IC50 [nM]
COC(=O)CC1(O)C=C(Br)C(=O)C(Br)=C1 [Compound 4f, Methyl 2-(3,5-dibromo-1-hydroxy-4-oxocyclohexa-2,5-dien-1-yl)acetate] | 199
COC(=O)CCC1(O)C=CC(=O)C=C1 [Compound 4g, Methyl 3-(1-hydroxy-4-oxocyclohexa-2,5-dien-1-yl)propanoate] | > 100000
O=C1C=CC2(C=C1)CCC(=O)O2 [Compound 4h, 1-Oxaspiro [4.5]deca-6,9-diene-2,8-dione] | 425
COC(=O)/C=C/C1(O)C=CC(=O)C=C1 [Compound 4i, Methyl (2E)-3-(1-hydroxy-4-oxocyclohexa-2,5-dien-1-yl)prop-2-enoate] | 569
O=C1C=CC(=O)c2cc(F)ccc21 [Compound 5d, 6-Fluoro-1,4-dihydronaphthalene-1,4-dione] | 2170
O=C1C=CC(=O)c2cc(F)c(F)cc21 [Compound 5e, 6,7-Difluoro-1,4-dihydronaphthalene-1,4-dione] | 4800

same assay, conditions: Rattus norvegicus, L6, 72 h, read-out: Cyt. L6 IC50

SMILES | IC50 [nM]
Nc1nc(N)nc(Nc2ccc([As]3SCC(CO)S3)cc2)n1 (centres unmarked) [Mel., melarsoprol, reference compound] | 24200
COc1cc([C@@H]2c3cc4c(cc3[C@H](O)[C@H]3COC(=O)[C@H]23)OCO4)cc(OC)c1OC [Pod., podophyllotoxin, reference compound] | 7

tested on: not given; experiment: not given; settings: not given

melting point [°C] | SMILES
49 to 50 | COC(=O)CCC1(O)C=CC(=O)C=C1 [Compound 4g, Methyl 3-(1-hydroxy-4-oxocyclohexa-2,5-dien-1-yl)propanoate]
105 to 106 | O=C1C=CC2(C=C1)CCC(=O)O2 [Compound 4h, 1-Oxaspiro [4.5]deca-6,9-diene-2,8-dione]
119 to 120 | O=C1C=CC(=O)c2cc(F)ccc21 [Compound 5d, 6-Fluoro-1,4-dihydronaphthalene-1,4-dione]
128 to 130 | O=C1C=CC(=O)c2cc(F)c(F)cc21 [Compound 5e, 6,7-Difluoro-1,4-dihydronaphthalene-1,4-dione]

tested on: T. brucei rhodesiense, strain STIB900 trypomastigote forms; experiment: In vitro growth inhibition assay of Trypanosoma brucei rhodesiense STIB900 (Alamar blue); type: cell-based; settings: Trypanosoma brucei, read-out: T. b. rhod. IC50
Protocol: Trypanocidal activity was determined in vitro against axenically grown bloodstream-forms of T. b. rhodesiense STIB900 as described in Refs. [76, 77] and detailed in the Supplementary Materials. Parasite proliferation was assessed via fluorescence of the redox-sensitive dye resazurin (Alamar blue). The drug melarsoprol was used as the positive control. […]
1.2 In vitro growth inhibition assay of Trypanosoma brucei rhodesiense
Trypanosoma brucei rhodesiense, STIB 900 strain, and the standard drug, melarsoprol, were used for the assay. Minimum Essential Medium (50 μL) supplemented with 25 mM HEPES, 1g/L additional glucose, 1% MEM non-essential amino acids (100x), 0.2 mM 2-mercaptoethanol, 1 mM Na-pyruvate and 15% heat-inactivated horse serum was added to each well of a 96-well microtiter plate. Serial drug dilutions of 11 three-fold dilution steps covering a range from 100 to 0.002 μg/mL were prepared. Then […]
mL double-distilled water) was then added to each well and incubation continued for a further 2–4 h.
Then, the plates were read with a Spectramax Gemini XS microplate fluorometer (Molecular Devices Cooperation, Sunnyvale, CA, USA) using an excitation wavelength of 536 nm and an emission wavelength of 588 nm. The IC50 values were calculated from the sigmoidal inhibition curves using the microplate reader software Softmax Pro (Molecular Devices Cooperation, Sunnyvale, CA, USA).
Melarsoprol was used as control. […]

SMILES | IC50 [nM]
Nc1nc(N)nc(Nc2ccc([As]3SCC(CO)S3)cc2)n1 (centres unmarked) [Mel., melarsoprol, reference compound] | 4

same assay, conditions: Trypanosoma brucei; STIB900; stated in text in nM; read-out: T. brucei rhodesiense IC50

IC50 [nM] | SMILES
< 100 | O=C1C=CC(=O)c2cc(F)ccc21 [Compound 5d, 6-Fluoro-1,4-dihydronaphthalene-1,4-dione]

same assay, conditions: Trypanosoma brucei; strain STIB900 trypomastigote forms; means of two to three measurements, SD <5%; read-out: T. b. rhod. IC50

IC50 [nM] | SMILES
24 | COC(=O)CC1(O)C=C(Br)C(=O)C(Br)=C1 [Compound 4f, Methyl 2-(3,5-dibromo-1-hydroxy-4-oxocyclohexa-2,5-dien-1-yl)acetate]
4870 | COC(=O)CCC1(O)C=CC(=O)C=C1 [Compound 4g, Methyl 3-(1-hydroxy-4-oxocyclohexa-2,5-dien-1-yl)propanoate]
4890 | O=C1C=CC2(C=C1)CCC(=O)O2 [Compound 4h, 1-Oxaspiro [4.5]deca-6,9-diene-2,8-dione]
108 | COC(=O)/C=C/C1(O)C=CC(=O)C=C1 [Compound 4i, Methyl (2E)-3-(1-hydroxy-4-oxocyclohexa-2,5-dien-1-yl)prop-2-enoate]
93 | O=C1C=CC(=O)c2cc(F)ccc21 [Compound 5d, 6-Fluoro-1,4-dihydronaphthalene-1,4-dione]
166 | O=C1C=CC(=O)c2cc(F)c(F)cc21 [Compound 5e, 6,7-Difluoro-1,4-dihydronaphthalene-1,4-dione]

same assay, conditions: based on IC50 values in nmol/L; DataWarrior 5.5.0

SMILES | ligand efficiency lipophilic price (LELP), T. brucei rhodesiense | lipophilic ligand efficiency (LLE), T. brucei rhodesiense
COC(=O)CC1(O)C=C(Br)C(=O)C(Br)=C1 [Compound 4f, Methyl 2-(3,5-dibromo-1-hydroxy-4-oxocyclohexa-2,5-dien-1-yl)acetate] | 1.3564 | 6.6745
COC(=O)CCC1(O)C=CC(=O)C=C1 [Compound 4g, Methyl 3-(1-hydroxy-4-oxocyclohexa-2,5-dien-1-yl)propanoate] | 0.5746 | 5.0134
O=C1C=CC2(C=C1)CCC(=O)O2 [Compound 4h, 1-Oxaspiro [4.5]deca-6,9-diene-2,8-dione] | 0.1253 | 5.2346
COC(=O)/C=C/C1(O)C=CC(=O)C=C1 [Compound 4i, Methyl (2E)-3-(1-hydroxy-4-oxocyclohexa-2,5-dien-1-yl)prop-2-enoate] | 0.0687 | –
O=C1C=CC(=O)c2cc(F)ccc21 [Compound 5d, 6-Fluoro-1,4-dihydronaphthalene-1,4-dione] | 2.0757 | 5.4913
O=C1C=CC(=O)c2cc(F)c(F)cc21 [Compound 5e, 6,7-Difluoro-1,4-dihydronaphthalene-1,4-dione] | 2.470 | 5.1389
